pIC50: −log10 of the molar value.

The nature of the first assay: HK1 enzyme inhibitors – biochemical, selectivity assay for HKDC1 inhibitor project, dose response (AID 504763).
Details: not given
The term pIC50 denotes −log10 of the IC50, conventionally taken in molar units. On to `Cc1ccc(C)c(-n2nnnc2Sc2nnnn2-c2ccccc2)c1` [1-(2,5-dimethylphenyl)-5-(1-phenyltetrazol-5-yl)sulfanyltetrazole], for which the pIC50 was less than 4.10. Turning to `Oc1ccc(CN=Nc2ncc(Br)cn2)c(O)c1`, the pIC50 is less than 4.10.

For the compound `Cc1cc2cc(CCNC(=O)c3ccc(S(=O)(=O)N4CCCC4)cc3)c(O)nc2cc1C` [N-[2-(6,7-dimethyl-2-oxo-1H-quinolin-3-yl)ethyl]-4-pyrrolidin-1-ylsulfonylbenzamide], the pIC50 was 4.82. In turn, `CC[C@H](C)C=C(C)/C=C/C1=CC2=C(Cl)C(=O)[C@@](C)(OC(C)=O)C(=O)C2=CO1` [SMR000470870] showed a pIC50 of less than 4.10. Same read-out and setting: for `CCc1ccc(S(=O)(=O)N=C2C=C(Sc3nnc[nH]3)C(=O)c3ccccc32)cc1` the value was 5.55; for `COC1=CC(=O)C(OC)=C(OC)C1=O` [SMR001527280], 5.19.

The same assay, now with this note: inactive by the depositor's call.
Turning to `CCN(CC)Cc1cc(O)c(CN(CC)CC)cc1O` [2,5-bis(diethylaminomethyl)benzene-1,4-diol], the pIC50 is 4.26. On to `O=C(O)CSc1cc(NS(=O)(=O)c2cccc([N+](=O)[O-])c2)c2ccccc2c1O` [2-[1-hydroxy-4-[(3-nitrophenyl)sulfonylamino]naphthalen-2-yl]sulfanylacetic acid], for which the pIC50 was 4.53. This pIC50 is 0.27 log units higher than that of the compound before.

The values are drawn from BindingDB's records for doi:10.7270/Q23F4N3R (Burnham Center For Chemical Genomics, 2011).
